According to patent US11926604B2, “Myelination stimulator compounds, and methods of treatment” (priority 2018, dated 2024):

Legend:
mouse brain slices = assay: Myelination in brain slices (MBP, O1 immunostaining); assay type: cell-based; conditions: brain slices incubated 5 days in culture, MBP labeling
Method: FIG. 2. depicts the effect of compounds on myelination stimulation. FIG. 2. A. Myelin basic protein labeling (green) of brain slices incubated with compounds for 5 days in culture. *, p<0.05 vs vehicle. ANOVA. Data shown are representative at least 3 slices per treatment group per study, in at least 3 separate studies. (B) Vehicle, (C) K-261-0298. Note increased labeling.
Before undertaking in vivo testing, we assessed the ability of the lead compounds to promote OL development and myelination using mouse brain slices, as reported^62,63. Each compound and concentration was tested in triplicate, in at least three separate studies. Slices were collected at 1, 5, 9, or 13 days in vitro, fixed in 4% paraformaldehyde, and used for immunohistochemical staining.

[1] = Toxicokinetic sample collection, HPLC compound levels; assay type: in vivo, mouse; conditions: single i.p. injection of 100 mg/kg, mice
Method: Toxicokinetic Sample Collection: After the above studies, compound kinetics were examined. Male and female mice at approximately 60 days of age were used (n=8 mice per sex). […] Samples were collected prior to dose and at 30 minutes, 2, 4, 8 and 24 hours after. Compound levels were determined by High Pressure Liquid Chromatography (HPLC) at UF.

mice [2] = assay: Single-dose dose-range and toxicity study in mice; assay type: in vivo
Method: (§1) Dose-range and toxicity studies in mice. In consultation with UF veterinary staff and the IACUC committee, toxicity studies were performed. […] Compounds were dissolved in 100% DMSO and diluted with 0.9% NaCl before injecting. The IP route (100-500 ul) was used to treat 8-10 week old female adults. We used females because in some studies they are more sensitive to toxins. Experiments were performed with the 2 compounds that had the largest effect on myelination in the brain slice cultures, including K261-0298 and K261-0310. Mice were treated with a single dose.

[3] = assay type: physicochemical
Method: as §1

mice [4] = assay: Multiday toxicity study, 10 days; assay type: in vivo, mouse; conditions: 100 mg/kg for 10 days
hypoxia-exposed mouse = assay: Chronic sublethal hypoxia model of PWMI, ventriculomegaly; assay type: in vivo; parameters: ventricle size: unit not given here
Source text: FIG. 4. Depicts results of studies of myelination in an animal model of white matter injury. […] Dark-field, hemi-coronal sections at the same brain levels shown. Data shown are representative of 4 pups per treatment group. Arrow depict lateral ventricles. ac, anterior commisure. Note smaller ventricle size in the drug-treated pup. Scale bar=500 um.
We have initiated preclinical testing using the chronic sublethal hypoxia model of PWMI. Mice were reared under hypoxic or normoxic conditions from P2 to P12, as reported 64. At P2, litters were placed in a Plexiglas chamber in which ambient O2 levels are maintained at 10.0±0.3% O2. Normoxic animals were exposed to room air. To date we tested K261-0298 at 100 mg/kg, and mice were treated once per day from P2 to P12. At the end of the treatment period mice were examined for ventriculomegaly, as reported^64,65. […] Compared with normoxic controls^64,66, ventricle sizes in the drug-treated hypoxia animals were similar.

mouse pups = assay: Ten-day treatment of mouse pups from P2, safety and pulmonary hypertension; assay type: in vivo
Method: In addition, we also treated mouse pups starting on day P2 for ten days with 100 mg/kg/day K261-0298 or vehicle. […] We also evaluated for possible pulmonary hypertension.

C57BL/6 mice [5] = assay: Myelination in newborn mice in normoxia; assay type: in vivo, mouse
Source text: FIG. 3. depicts results of studies of myelination in newborn mice in normoxia. FIG. 3. Myelin basic protein (MBP), O4 and O1 labeling of coronal forebrain at level of corpus callosum (cc) of newborn mice treated with vehicle or drug (K261-298) from P2 to P12 in room air. Data shown are representative of at least 5 pups per treatment group. cc, corpus callosum. Scale bar=100 um.
After adult studies, pups were studied at developmental stages equivalent to preterm infants to assess effects on myelination, as reported by us^54. C57BL/6 mice were reared in room air from P2 to P12, and treated daily with the compound or vehicle. […] K261-0298 (100 mg/kg) was given by injection, as above.

[6] = diazoxide, basis for dose choice; cited from earlier work
model of PWMI = conditions: neonatal therapy; cited from earlier work
C57BL/6 mice [7] = conditions: cited from earlier work
[8] = pups from P2, ten days, 100 mg/kg/day
[9] = 100 mg/kg daily P2 to P12, room air, n=6

## CCOCCCNC(=O)CCC1=Nc2ccccc2S(=O)(=O)N1 [Compound K261-0298, 3-(1,1-dioxido-2H-benzo[e][1,2,4]thiadiazin-3-yl)-N-(3-ethoxypropyl)propanamide]
Mouse brain slices
  myelination in vitro: stimulates myelination in vitro
[1]; both sexes, mouse, in vivo, ip, read-out: circulating half-life (converted)
  half-life: 2.2 h
[1]
  peak drug levels: 21.5 ± 2.3 µM
Mice [2]; IP, 8-10 week old female mice
  tolerated single dose: up to 400 mg/kg
[3]
  solubility behaviour in dosing solution: more favorable solubility properties
Mice [4]
  adverse effects on animal behavior or weight: no adverse effects on animal behavior or weight loss
  histopathological analysis of major organs: did not reveal evidence of damage in any major organs
Mice [4]; 5 treated mice
  gross necropsy: no gross malformations were observed
hypoxia-exposed mouse; drug-treated hypoxia animals
  ventricle sizes compared with normoxic controls: similar
hypoxia-exposed mouse; hypoxia, 100 mg/kg once per day P2 to P12, n=4
  ventricle size: 0.0054+/−0.00013
hypoxia-exposed mouse; hypoxia, 100 mg/kg once per day P2 to P12, p<0.03, 100 mg/kg
  ventriculomegaly vs. vehicle: marked reduction in ventriculomegaly
Mouse pups; [8]
  behavior or weight gain versus vehicle: without any differences in behavior or weight gain
  survival: all survived to the end of treatment
Mouse pups; ten days of treatment in pups, juveniles, adults
  pulmonary hypertension: does not appear that this compound induces pulmonary hypertension
C57BL/6 mice [5]; [9]
  decrease in O4 labeling vs. vehicle: 44+/−4%
  increase in MBP labeling vs. vehicle: 27+/−4%
  increase in O1 labeling vs. vehicle: 26+/−5%
C57BL/6 mice [5]; P2 to P12 in room air, p<0.02
  O1 labeling (FIG. 3): increase in O1 labeling
  O4 expression (FIG. 3): reduction in O4 expression
C57BL/6 mice [5]; inferred from changes in CNS myelination
  bioavailability to the brain / blood-brain-barrier penetration: suggests that there is bioavailability of the compound to the brain

## CC(=O)c1ccc(N2CCN(C(=O)CCC3=Nc4ccccc4S(=O)(=O)N3)CC2)cc1 [Compound K261-0310, 1-(4-(4-acetylphenyl)piperazin-1-yl)-3-(1,1-dioxido-2H-benzo[e][1,2,4]thiadiazin-3-yl)propan-1-one]
Mice [2]; mouse, in vivo, ip, 50 mg/kg
  adverse effects at behavioral or gross necropsy levels: no adverse effects observed
[3]
  solubility behaviour in dosing solution: precipitated out of solution at higher concentrations

## CC1=NS(=O)(=O)c2cc(Cl)ccc2N1 [diazoxide]
[6]
  LD50: 265 to 392 mg/kg
Model of PWMI
  myelination: markedly improves myelination
  neurocognitive function: improves neurocognitive function
  ventriculomegaly: reduces ventriculomegaly
C57BL/6 mice [7]
  myelination in room air (earlier diazoxide studies): increased myelination
